Measured values: BigSolDB 2.1

Cc1ccc(S(=O)(=O)NC(=O)NN2CC3CCCC3C2)cc1 (stereo not drawn)
solubility (mole fraction)
Conditions	278.15 K	283.15 K	288.15 K	293.15 K	298.15 K	303.15 K	308.15 K	313.15 K	318.15 K
in DMF	0.0571	0.0629	0.0684	0.0743	0.0801	0.0866	0.0935	0.101	0.109
in THF	0.018	0.0217	0.0266	0.0318	0.0384	0.0462	0.0539	0.0635	0.076
in acetone	0.00883	0.0103	0.0121	0.0141	0.0166	0.0191	0.0219	0.0252	0.0291
in acetonitrile	0.00172	0.00211	0.00262	0.00319	0.0039	0.00473	0.00557	0.00658	0.00796
in chloroform	0.0581	0.0641	0.07	0.0773	0.0842	0.0919	0.1	0.109	0.119
in cyclohexanone	0.0112	0.0133	0.0155	0.0181	0.0209	0.0243	0.0278	0.0322	0.0371
in ethanol	0.000739	0.000911	0.00113	0.00137	0.00169	0.00203	0.00249	0.00296	0.00358
in ethyl acetate	0.00146	0.00174	0.00212	0.00248	0.00294	0.00351	0.00411	0.00477	0.00558
in ethyl formate	0.00188	0.00239	0.00297	0.00364	0.00453	0.00549	0.00673	0.0082	0.00976
in isobutanol	0.00042	0.000544	0.000709	0.000916	0.00114	0.00146	0.0018	0.00226	0.00286
in isopropanol	0.000332	0.000439	0.000579	0.000738	0.000945	0.0012	0.00151	0.00192	0.00241
in methanol	0.00122	0.00149	0.00178	0.00216	0.00257	0.00304	0.00358	0.00428	0.00497
in methyl acetate	0.00229	0.00283	0.00339	0.00418	0.00499	0.00588	0.00699	0.00838	0.00982
in n-butanol	0.000624	0.000787	0.000984	0.00123	0.00152	0.00192	0.0023	0.00286	0.00344
in n-propanol	0.000655	0.000831	0.00103	0.00129	0.00162	0.00199	0.00238	0.00291	0.0035
in sec-butanol	0.000505	0.000643	0.000834	0.00106	0.00133	0.00166	0.00205	0.00258	0.00322
in toluene	0.000307	0.000395	0.000499	0.000634	0.000789	0.000979	0.00119	0.0015	0.00181
